Measurements: US20230373934A1, “ANDROGEN RECEPTOR MODULATORS AND METHODS FOR THEIR USE” (ESSA Pharma, Inc., priority 2022, published 2023)

Legend:
[1] = Microsomal stability assay, liver microsome half-life (mouse); type: in vitro ADME; conditions: pH 7.4; mouse liver microsomes 0.5 mg/mL + NADPH, 1 μM compound, 37° C; read-out: Liver microsome + NADPH T½ (min) Mouse
Text: (§1) Microsomal Stability Assay: Microsomal stability assay is a widely used in vitro model to characterize the metabolic conversion by phase I enzymes, such as cytochrome P450 (CYP) enzymes. Since metabolism is known to be highly variable in different species, microsomal stability assay is commonly run in multiple species. Metabolic stability of testing compound can be evaluated using human, rat, mouse, or other animal liver or intestine microsomes to predict intrinsic clearance.
(§2) The assay was carried out in 96-well microtiter plates at 37° C. Reaction mixtures (25 μL) contained a final concentration of 1 μM test compound, 0.5 mg/mL liver microsomes protein, and 1 mM NADPH and/or 1 mM UDPGA (with alamethicin) in 100 mM potassium phosphate, pH 7.4 buffer with 3 mM MgCl2. The incubation was done with N=1, but duplicate incubation at each time point can be prepared if necessary. At each of the time points (for example, 0, 15, 30, and 60 minutes), 150 μL of quench solution (100% acetonitrile with 0.1% formic acid) with internal standard was transferred to each well. Besides the zero minute controls, mixtures containing the same components except the NADPH can also be prepared as the negative control. Verapamil was included as a positive control to verify assay performance. Plates were sealed, vortexed, and centrifuged at 4° C. for 15 minutes at 4000 rpm. The supernatant is transferred to fresh plates for LC/MS/MS analysis.
(§3) Summarized conditions: [Compound]=1 μM, [LM]=0.5 mg/mL, [NADPH]=1 mM and/or [UDPGA]=1 mM, Buffer=100 mM Potassium Phosphate, pH 7.4 with 3 mM MgCl2, Time=0, 15, 30, and 60 min, and Temperature=37° C.
(§4) All samples were analyzed on LC/MS/MS using an AB Sciex API 4000 instrument, coupled to a Shimadzu LC-20AD LC Pump system. Analytical samples were separated using a Waters Atlantis T3 dC18 reverse phase HPLC column (20 mm×2.1 mm) at a flow rate of 0.5 mL/min. The mobile phase consisted of 0.1% formic acid in water (solvent A) and 0.1% formic acid in 100% acetonitrile (solvent B).
(§5) The extent of metabolism is calculated as the disappearance of the test compound, compared to the 0-min time incubation. Initial rates are calculated for the compound concentration and used to determine half-life (t1/2).

[2] = Microsomal stability assay, liver microsome half-life (dog); type: in vitro ADME; conditions: pH 7.4; dog liver microsomes 0.5 mg/mL + NADPH, 1 μM compound, 37° C; read-out: Liver microsome + NADPH T½ (min) Dog
Text: as §1, §2, §3, §4, §5

[3] = Microsomal stability assay, liver microsome half-life (human); type: in vitro ADME; conditions: pH 7.4; human liver microsomes 0.5 mg/mL + NADPH, 1 μM compound, 37° C; read-out: Liver microsome + NADPH T½ (min) Human
Text: as §1, §2, §3, §4, §5

[4] = Microsomal stability assay, liver microsome half-life (monkey); type: in vitro ADME; conditions: pH 7.4; monkey liver microsomes 0.5 mg/mL + NADPH, 1 μM compound, 37° C; read-out: Liver microsome + NADPH T½ (min) Monkey
Text: as §1, §2, §3, §4, §5

[5] = Microsomal stability assay, liver microsome half-life (rat); type: in vitro ADME; conditions: pH 7.4; rat liver microsomes 0.5 mg/mL + NADPH, 1 μM compound, 37° C; read-out: Liver microsome + NADPH T½ (min) Rat
Text: as §1, §2, §3, §4, §5

[6] = biological target: T1, androgen receptor (AR) (Homo sapiens, UniProt P10275, T878A); assay: Androgen-induced PSA-luciferase assay, Luciferase Assay A (LNCaP transiently transfected with PSA (6.1 kb)-luciferase reporter); type: cell-based; conditions: LNCaP cells, 1 h pretreatment, R1881 (1 nM) 24 h, read-out: PSA-Luc IC50 Range
T1 construct: endogenous in cells; host or cells: LNCaP
T1 sequence (P10275 1-920 T878A): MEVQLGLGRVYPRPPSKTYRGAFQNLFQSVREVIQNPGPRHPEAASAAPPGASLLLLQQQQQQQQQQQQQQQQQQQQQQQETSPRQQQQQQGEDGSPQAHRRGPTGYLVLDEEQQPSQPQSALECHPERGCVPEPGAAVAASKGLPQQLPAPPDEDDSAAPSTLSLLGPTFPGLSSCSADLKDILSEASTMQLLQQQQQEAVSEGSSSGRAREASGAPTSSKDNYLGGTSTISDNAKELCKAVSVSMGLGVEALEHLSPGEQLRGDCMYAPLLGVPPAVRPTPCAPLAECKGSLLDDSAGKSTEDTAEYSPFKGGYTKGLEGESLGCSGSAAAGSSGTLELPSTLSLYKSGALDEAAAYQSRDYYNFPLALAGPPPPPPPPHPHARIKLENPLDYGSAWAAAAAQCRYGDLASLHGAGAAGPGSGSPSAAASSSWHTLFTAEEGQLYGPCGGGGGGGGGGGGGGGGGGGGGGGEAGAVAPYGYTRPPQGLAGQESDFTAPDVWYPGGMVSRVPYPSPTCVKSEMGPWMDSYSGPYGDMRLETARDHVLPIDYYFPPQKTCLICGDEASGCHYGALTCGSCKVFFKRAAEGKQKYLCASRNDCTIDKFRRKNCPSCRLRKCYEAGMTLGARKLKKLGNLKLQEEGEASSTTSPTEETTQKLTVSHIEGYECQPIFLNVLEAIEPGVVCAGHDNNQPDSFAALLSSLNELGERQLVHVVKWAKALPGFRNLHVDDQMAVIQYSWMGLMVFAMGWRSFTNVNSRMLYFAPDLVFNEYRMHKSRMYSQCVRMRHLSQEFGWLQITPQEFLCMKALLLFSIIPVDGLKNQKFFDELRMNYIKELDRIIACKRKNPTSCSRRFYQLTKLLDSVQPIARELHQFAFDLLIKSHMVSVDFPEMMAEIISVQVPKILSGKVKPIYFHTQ
How it was run: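 LNCaP cells transfected 24 h with PSA (6.1 kb)-luciferase reporter, pretreated 1 h with compound, then stimulated 24 h with R1881 (1 nM). Firefly luminescence in lysates normalized to protein content; IC50 from activity relative to R1881-induced vehicle control.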

Structure (SMILES)	half-life at 1 μM [1] [min]	half-life at 1 μM [2] [min]	half-life at 1 μM [3] [min]	half-life at 1 μM [4] [min]	half-life at 1 μM [5] [min]	IC50 [6] [nM]
CC(C)(C)N(c1ccc(-c2ccc3nc(NS(C)(=O)=O)cnc3c2)cc1)c1cc(Cl)c(OCCCl)c(C#N)c1 [Compound A28]	> 120	> 120	78	> 120	> 120	500 to 2000
CC(C)(c1ccc(-c2cnc(N3CC(NS(C)(=O)=O)C3)nc2)cc1)c1cc(Cl)c(OCCCl)c(C#N)c1 [Compound A36, N-(1-(5-(4-(2-(3-chloro-4-(2-chloroethoxy)-5-cyanophenyl)propan-2-yl)phenyl)pyrimidin-2-yl)azetidin-3-yl)methanesulfonamide]	> 120	> 120	> 120	49	66	< 500
CC(C)(c1ccc(-c2cnc(N3CC(NS(C)(=O)=O)C3)cn2)cc1)c1cc(Cl)c(OCCCl)c(C#N)c1 [Compound A37]	> 120	> 120	> 120	32	> 120	< 500
COc1c(Cl)cc(Oc2ccc(-c3ccc4nc(NS(C)(=O)=O)cnc4c3)cc2)cc1C#N [Compound A43]	> 120	> 120	> 120	> 120	> 120	< 500
CC(C)(c1ccc(-c2cnn([C@H]3C[C@H](NS(C)(=O)=O)C3)c2)cc1)c1cc(Cl)c(OCCCl)c(C#N)c1 [Compound A44, N-((1r,3r)-3-(4-(4-(2-(3-chloro-4-(2-chloroethoxy)-5-cyanophenyl)propan-2-yl)phenyl)-1H-pyrazol-1-yl)cyclobutyl)methanesulfonamide]	> 120	> 120	> 120	117	112	< 500
CC(C)(c1ccc(OC2CC3(C2)CN(S(C)(=O)=O)C3)cc1)c1cc(Cl)c(OCCCl)c(C#N)c1 [Compound A72]	> 120	> 120	> 120	> 120	> 120	500 to 2000
CC(C)(c1ccc(-c2cnn(C34CC(NS(C)(=O)=O)(C3)C4)c2)cc1)c1cc(Cl)c(OCCCl)c(C#N)c1 [Compound A75]	> 120	> 120	> 120	> 120	> 120	500 to 2000
CNC(=O)c1ccc(N2C(=S)N(c3ccc(C#N)c(C(F)(F)F)c3)C(=O)C2(C)C)cc1F [Enzalutamide, enzalutamide, reference compound]	> 120	> 120	> 120	> 120	> 120	–
CC(C)(c1ccc(OC[C@H](O)CNS(C)(=O)=O)cc1)c1cc(Cl)c(OC[C@H](O)CCl)c(Cl)c1 [X, reference compound]	–	–	> 120	–	–	–
